Reference: PubChem BioAssay AID248 (DTP/NCI, 2004)
Inconclusive results and toxic doses are left out. Cut-off read from the data, not from the text of the source: active = T/C of 150% or more; inactive = T/C below 125%.

Test system: L1210 leukemia ip in BDF1 mice, survival T/C
Assay: NCI In Vivo Anticancer Drug Screen. Data for tumor model L1210 Leukemia (intraperitoneal) in B6D2F1 (BDF1) mice
Details: endpoint: mean survival time, higher = longer survival
In short: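 Tumor was transplanted into mice, which were then dosed with test compound or vehicle alone. Survival was recorded for each group, and the treated figure was expressed relative to the control figure.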

[1] = dose: 100.0 mg/kg/injection, schedule: Q01DX009 (ip), vehicle: saline with Tween-80
[2] = dose: 100.0 mg/kg/injection, schedule: Q04DX003 (ip), vehicle: saline with Tween-80
[3] = dose: 200.0 mg/kg/injection, schedule: Q01DX009 (ip), vehicle: saline with Tween-80
[4] = dose: 200.0 mg/kg/injection, schedule: Q04DX003 (ip), vehicle: saline with Tween-80
[5] = dose: 400.0 mg/kg/injection, schedule: Q01DX009 (ip), vehicle: saline with Tween-80
[6] = dose: 400.0 mg/kg/injection, schedule: Q04DX003 (ip), vehicle: saline with Tween-80
[7] = dose: 100.0 mg/kg/injection, schedule: Q01DX001 (ip), vehicle: saline
[8] = dose: 200.0 mg/kg/injection, schedule: Q01DX001 (ip), vehicle: saline
[9] = dose: 400.0 mg/kg/injection, schedule: Q01DX001 (ip), vehicle: saline
[10] = dose: 100.0 mg/kg/injection, schedule: Q01DX009 (ip), vehicle: Klucel (hydroxypropylcellulose) (HPC)
[11] = dose: 100.0 mg/kg/injection, schedule: Q04DX002 (ip), vehicle: Klucel (hydroxypropylcellulose) (HPC)
[12] = dose: 200.0 mg/kg/injection, schedule: Q01DX009 (ip), vehicle: Klucel (hydroxypropylcellulose) (HPC)
[13] = dose: 200.0 mg/kg/injection, schedule: Q04DX002 (ip), vehicle: Klucel (hydroxypropylcellulose) (HPC)
[14] = dose: 400.0 mg/kg/injection, schedule: Q01DX009 (ip), vehicle: Klucel (hydroxypropylcellulose) (HPC)
[15] = dose: 400.0 mg/kg/injection, schedule: Q04DX002 (ip), vehicle: Klucel (hydroxypropylcellulose) (HPC)
[16] = dose: 100.0 mg/kg/injection, schedule: Q04DX003 (ip), vehicle: Klucel (hydroxypropylcellulose) (HPC)
[17] = dose: 200.0 mg/kg/injection, schedule: Q04DX003 (ip), vehicle: Klucel (hydroxypropylcellulose) (HPC)
[18] = dose: 400.0 mg/kg/injection, schedule: Q04DX003 (ip), vehicle: Klucel (hydroxypropylcellulose) (HPC)
[19] = dose: 100.0 mg/kg/injection, schedule: Q01DX001 (ip), vehicle: Klucel (hydroxypropylcellulose) (HPC)
[20] = dose: 200.0 mg/kg/injection, schedule: Q01DX001 (ip), vehicle: Klucel (hydroxypropylcellulose) (HPC)
[21] = dose: 400.0 mg/kg/injection, schedule: Q01DX001 (ip), vehicle: Klucel (hydroxypropylcellulose) (HPC)
[22] = dose: 50.0 mg/kg/injection, schedule: Q01DX009 (ip), vehicle: Klucel (hydroxypropylcellulose) (HPC)
[23] = dose: 100.0 mg/kg/injection, schedule: Q04DX003 (ip), vehicle: saline
[24] = dose: 200.0 mg/kg/injection, schedule: Q04DX003 (ip), vehicle: saline

Measured: T/C

COc1ccccc1SC(=O)N(C)C
inactive: [1] 102 % of control | [2] 105 % of control | [3] 98 % of control | [4] 96 % of control | [5] 93 % of control | [6] 113 % of control

CC(C)C(O)CC(=O)NN (centres undefined)
inactive: [7] 98 % of control | [8] 110 % of control | [9] 102 % of control

CC(=O)N(c1ccccc1)c1ccccc1
inactive: [10] 95 % of control | [11] 91 % of control | [12] 95 % of control | [13] 98 % of control | [14] 95 % of control | [15] 112 % of control

NC(=S)NNC(=O)/C=C/c1ccccc1
inactive: dose: 100.0 mg/kg/injection, schedule: Q04DX003 (ip), vehicle: saline sonified 105 % of control | dose: 200.0 mg/kg/injection, schedule: Q04DX003 (ip), vehicle: saline sonified 91 % of control | dose: 400.0 mg/kg/injection, schedule: Q04DX003 (ip), vehicle: saline sonified 91 % of control

O=C(Cc1cccc([N+](=O)[O-])c1)Nc1ccccc1
inactive: [10] 91 % of control | [16] 96 % of control | [12] 98 % of control | [17] 96 % of control | [14] 93 % of control | [18] 102 % of control

CC(=O)Nc1ccc(Cc2ccc(NC(C)=O)cc2)cc1
inactive: dose: 75.0 mg/kg/injection, schedule: Q01DX001 (ip), vehicle: Klucel (hydroxypropylcellulose) (HPC) 93 % of control | [2] 101 % of control | dose: 150.0 mg/kg/injection, schedule: Q01DX001 (ip), vehicle: Klucel (hydroxypropylcellulose) (HPC) 100 % of control | [4] 93 % of control | dose: 300.0 mg/kg/injection, schedule: Q01DX001 (ip), vehicle: Klucel (hydroxypropylcellulose) (HPC) 98 % of control | [6] 97 % of control

CCCCCCCCCCCCNC(=O)OCCN(CCOC(=O)NCCCCCCCCCCCC)C(=O)COc1ccc(Cl)cc1
inactive: dose: 100.0 mg/kg/injection, schedule: Q01DX009 (ip), vehicle: other 92 % of control | dose: 200.0 mg/kg/injection, schedule: Q01DX009 (ip), vehicle: other 92 % of control | dose: 400.0 mg/kg/injection, schedule: Q01DX009 (ip), vehicle: other 96 % of control

CC(=O)OCCSCCc1ccccc1
inactive: dose: 62.5 mg/kg/injection, schedule: Q01DX009 (ip), vehicle: saline with Tween-80 97 % of control | dose: 125.0 mg/kg/injection, schedule: Q01DX009 (ip), vehicle: saline with Tween-80 113 % of control | dose: 250.0 mg/kg/injection, schedule: Q01DX009 (ip), vehicle: saline with Tween-80 94 % of control

O=C1CSCc2ccccc21
inactive: [11] 103 % of control | [13] 95 % of control | [15] 95 % of control

O=C1CCC2=C3C4CCCCC4C(=O)C4CCCC(OC2C1)C34 (centres undefined)
inactive: dose: 75.0 mg/kg/injection, schedule: Q01DX001 (ip), vehicle: other 105 % of control | dose: 150.0 mg/kg/injection, schedule: Q01DX001 (ip), vehicle: other 94 % of control | dose: 300.0 mg/kg/injection, schedule: Q01DX001 (ip), vehicle: other 89 % of control

CCOC(=O)NCC(C)(CCN1CCOCC1)c1cccc2ccccc12 (centres undefined)
inactive: dose: 25.0 mg/kg/injection, schedule: Q04DX003 (ip), vehicle: saline with Tween-80 93 % of control | dose: 50.0 mg/kg/injection, schedule: Q04DX003 (ip), vehicle: saline with Tween-80 97 % of control | [10] 94 % of control | [2] 103 % of control

ClC1(c2ccccc2)c2ccc(Br)cc2-c2cc(Br)ccc21
inactive: [10] 103 % of control | [16] 104 % of control | [12] 100 % of control | [17] 107 % of control | [14] 108 % of control | [18] 94 % of control

c1ccc2c(c1)C1CCC2c2ccccc21
inactive: [1] 106 % of control | [2] 95 % of control | [3] 102 % of control | [4] 98 % of control | [5] 97 % of control | [6] 92 % of control

COC(=O)C1=CCCCC(N2CCOCC2)=C1C(=O)OC
inactive: [7] 97 % of control | [8] 101 % of control | [9] 103 % of control

CC(/C=N/O)=C1C=CC=C1
inactive: [19] 94 % of control | [10] 98 % of control | [16] 102 % of control | [20] 92 % of control | [12] 100 % of control | [17] 98 % of control | [21] 97 % of control | [14] 105 % of control | [18] 102 % of control

Cc1ccc(NC(=O)Sc2ccc(Cl)cc2)c([N+](=O)[O-])c1
inactive: [22] 109 % of control | [10] 98 % of control | [16] 102 % of control | [12] 106 % of control | [17] 104 % of control | [18] 109 % of control

CCO/C=N\c1[nH]ncc1C#N
inactive: [22] 93 % of control | [10] 107 % of control | [12] 103 % of control

CC[N+](C)(C)CCOC(=O)C1C2CC3OC(=O)C1C3C2 (centres undefined)
inactive: [23] 97 % of control | [24] 101 % of control

CCOC(=O)C(OC(=O)c1ccccc1)(OC(=O)c1ccccc1)C(=O)OCC
inactive: [7] 101 % of control | [8] 93 % of control

CC(=O)OCCN1CCCCC1
inactive: dose: 100.0 mg/kg/injection, schedule: Q04DX002 (ip), vehicle: saline 94 % of control | dose: 200.0 mg/kg/injection, schedule: Q04DX002 (ip), vehicle: saline 94 % of control | dose: 400.0 mg/kg/injection, schedule: Q04DX002 (ip), vehicle: saline 97 % of control

CCCS(=O)(=O)C(S(C)(=O)=O)S(=O)(=O)CC (centres undefined)
inactive: [19] 94 % of control | [20] 98 % of control | [21] 91 % of control

O=C(NCCCCCCCCCCNC(=O)C(Cl)Cl)C(Cl)Cl
inactive: [16] 98 % of control | [17] 90 % of control | [18] 105 % of control

CCc1cc(Cl)ccc1OCC(=O)O
inactive: [1] 97 % of control | [3] 105 % of control

Cc1ccc(S(=O)(=O)N(C)c2ccc(I)c(Cl)c2Cl)cc1
inactive: [16] 102 % of control | [17] 96 % of control | [18] 98 % of control

Nc1nnnn1-c1ccccc1-c1ccccc1
inactive: [10] 101 % of control | [12] 104 % of control | [14] 114 % of control

Nc1nc(Cl)c2nnn(C3CC(O)C(CO)C3)c2n1 (centres undefined)
inactive: dose: 25.0 mg/kg/injection, schedule: Q01DX009 (ip), vehicle: Klucel (hydroxypropylcellulose) (HPC) 118 % of control | [22] 105 % of control | [10] 100 % of control

Nc1nc(N)c(-c2ccc(Cl)c(Cl)c2)c(CO)n1
inactive: [2] 98 % of control | [4] 107 % of control | [6] 117 % of control

COC(=O)C1(C(=O)OC)C2CCCCC21 (centres undefined)
inactive: [19] 90 % of control | [16] 96 % of control | [20] 103 % of control | [17] 104 % of control | [21] 98 % of control | [18] 98 % of control

Clc1nc(Cl)c(Cl)nc1Cl
inactive: dose: 25.0 mg/kg/injection, schedule: Q01DX009 (ip), vehicle: saline with Tween-80 102 % of control | dose: 50.0 mg/kg/injection, schedule: Q01DX009 (ip), vehicle: saline with Tween-80 100 % of control | [1] 100 % of control | [3] 110 % of control | [5] 96 % of control

O=C(CCl)NCc1ccc(Cl)c(C(=O)O)c1
inactive: [7] 103 % of control | [23] 98 % of control | [8] 99 % of control | [24] 88 % of control | [9] 89 % of control | dose: 400.0 mg/kg/injection, schedule: Q04DX003 (ip), vehicle: saline 96 % of control

CCCNC(=O)Oc1cccc(NC(=O)OC)c1
inactive: [2] 93 % of control | [4] 97 % of control | [6] 103 % of control

Fc1ccc2c(c1)CC(CBr)O2 (centres undefined)
inactive: dose: 50.0 mg/kg/injection, schedule: Q01DX001 (ip), vehicle: saline 100 % of control | [7] 105 % of control | [8] 103 % of control | [9] 103 % of control

O=C(NC1CCCCC1)Oc1ccc(-c2ccccc2)cc1Cl
inactive: [10] 101 % of control | [16] 111 % of control | [12] 107 % of control | [17] 104 % of control | [14] 98 % of control | [18] 98 % of control

C(=Nc1ccccc1)c1ccc[nH]1
inactive: [2] 100 % of control | [4] 93 % of control | [6] 96 % of control
